Legend:
Bovine cardiac myosin = Bovine cardiac myosin (Bos taurus (Bovine), UniProt Q9BE39); experiment: Cardiac muscle myosin II actin-activated ATPase assay (NADH-coupled); assay type: biochemical; parameters: key to Ratio CMMII:NMII Ki/EC50: NMII-sel: no Ki value for cardiac myosin II could be determined; the compounds had no detectable inhibitory properties versus the cardiac myosin II; details: for Ki: 300 nM cardiac myosin, 10 μM actin, 25° C., read-out: CMMII KI; for Ratio CMMII:NMII Ki/EC50: cardiac myosin II Ki over nonmuscle myosin II EC50
Bovine cardiac myosin, sequence (Q9BE39 whole entry): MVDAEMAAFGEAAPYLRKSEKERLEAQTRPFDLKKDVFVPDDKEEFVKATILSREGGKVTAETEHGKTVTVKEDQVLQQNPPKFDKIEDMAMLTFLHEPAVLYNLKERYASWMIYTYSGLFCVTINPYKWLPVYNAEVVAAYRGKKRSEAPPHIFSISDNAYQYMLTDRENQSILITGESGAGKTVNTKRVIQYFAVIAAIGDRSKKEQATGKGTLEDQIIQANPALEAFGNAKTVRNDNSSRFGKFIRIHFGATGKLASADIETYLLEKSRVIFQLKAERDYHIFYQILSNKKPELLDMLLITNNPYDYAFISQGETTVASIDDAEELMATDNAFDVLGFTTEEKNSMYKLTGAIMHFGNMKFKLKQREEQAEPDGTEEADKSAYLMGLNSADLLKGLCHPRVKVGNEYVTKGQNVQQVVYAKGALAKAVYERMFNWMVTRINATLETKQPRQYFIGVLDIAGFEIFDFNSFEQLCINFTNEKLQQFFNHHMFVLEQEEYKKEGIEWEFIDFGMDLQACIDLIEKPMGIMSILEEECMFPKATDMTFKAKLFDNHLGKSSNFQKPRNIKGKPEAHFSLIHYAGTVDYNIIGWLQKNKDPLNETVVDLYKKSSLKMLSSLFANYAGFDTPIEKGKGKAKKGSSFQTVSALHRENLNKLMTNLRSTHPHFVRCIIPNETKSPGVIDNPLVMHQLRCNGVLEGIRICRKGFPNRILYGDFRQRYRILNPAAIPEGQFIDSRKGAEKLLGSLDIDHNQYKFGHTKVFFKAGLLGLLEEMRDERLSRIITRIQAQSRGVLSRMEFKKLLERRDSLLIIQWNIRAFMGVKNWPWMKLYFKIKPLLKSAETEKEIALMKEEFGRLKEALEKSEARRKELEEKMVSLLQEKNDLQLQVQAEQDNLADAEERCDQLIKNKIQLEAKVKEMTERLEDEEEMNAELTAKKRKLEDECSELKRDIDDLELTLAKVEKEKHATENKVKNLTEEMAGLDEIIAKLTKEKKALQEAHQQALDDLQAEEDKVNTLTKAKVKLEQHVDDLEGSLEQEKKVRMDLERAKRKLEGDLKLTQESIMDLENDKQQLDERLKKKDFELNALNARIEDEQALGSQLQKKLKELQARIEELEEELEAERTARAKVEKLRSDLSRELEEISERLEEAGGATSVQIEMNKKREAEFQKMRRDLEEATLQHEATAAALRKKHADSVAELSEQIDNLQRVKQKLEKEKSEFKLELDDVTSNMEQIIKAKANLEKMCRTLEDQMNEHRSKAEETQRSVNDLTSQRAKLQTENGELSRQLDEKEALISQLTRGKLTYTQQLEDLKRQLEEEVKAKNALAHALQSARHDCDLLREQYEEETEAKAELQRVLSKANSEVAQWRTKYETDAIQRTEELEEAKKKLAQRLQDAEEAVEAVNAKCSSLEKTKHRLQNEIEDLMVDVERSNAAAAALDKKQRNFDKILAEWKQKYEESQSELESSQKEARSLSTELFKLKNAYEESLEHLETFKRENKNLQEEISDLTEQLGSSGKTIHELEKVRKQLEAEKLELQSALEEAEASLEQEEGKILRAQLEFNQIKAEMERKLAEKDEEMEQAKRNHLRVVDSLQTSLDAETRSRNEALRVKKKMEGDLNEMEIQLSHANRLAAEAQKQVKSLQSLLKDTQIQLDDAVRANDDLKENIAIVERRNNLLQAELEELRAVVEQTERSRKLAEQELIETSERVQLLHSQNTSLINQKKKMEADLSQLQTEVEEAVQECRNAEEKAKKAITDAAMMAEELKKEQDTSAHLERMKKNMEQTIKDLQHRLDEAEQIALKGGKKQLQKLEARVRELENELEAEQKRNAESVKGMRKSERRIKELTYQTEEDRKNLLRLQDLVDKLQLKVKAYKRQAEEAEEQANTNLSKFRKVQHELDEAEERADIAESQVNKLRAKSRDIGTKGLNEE
Bovine cardiac myosin, sequence (P85100 whole entry partner): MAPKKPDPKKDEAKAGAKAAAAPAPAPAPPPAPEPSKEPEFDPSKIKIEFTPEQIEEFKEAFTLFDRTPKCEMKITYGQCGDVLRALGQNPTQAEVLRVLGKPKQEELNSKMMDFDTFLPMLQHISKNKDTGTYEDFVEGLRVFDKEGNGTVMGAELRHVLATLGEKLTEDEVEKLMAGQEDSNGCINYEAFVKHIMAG
Bovine cardiac myosin, sequence (Q3SZE5 whole entry partner): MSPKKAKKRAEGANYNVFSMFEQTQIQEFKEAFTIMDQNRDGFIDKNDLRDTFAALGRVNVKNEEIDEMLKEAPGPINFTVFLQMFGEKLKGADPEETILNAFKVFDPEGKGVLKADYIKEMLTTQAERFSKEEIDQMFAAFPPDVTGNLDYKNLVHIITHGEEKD
In short: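 Inhibitory constants came from a quadratic one-to-one binding fit of 16-point dose-responses (highest final 50 uM, triplicate). Rates were NADH-calibrated fluorescence slopes over 30 min at 25° C, with 300 nM bovine cardiac myosin, 10 μM actin and 1 mM ATP coupled through PK/LDH in pH 7.0 MOPS buffer.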

[1] = Photostability, percentage remaining undegraded under illumination or in the dark; details: for Photostability 4 hours: percentage remaining undegraded after 4 hours illumination; for Photostability 24 hours: percentage remaining undegraded after 24 hours illumination; for Photostability Dark (24 h): percentage remaining undegraded in the dark
Rabbit skeletal myosin = experiment: Skeletal muscle myosin II actin-activated ATPase assay; assay type: biochemical; details: 20 nM skeletal muscle myosin II; read-out: SKMMII KI
In short: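 Inhibitory constants come from a quadratic one-site fit of 16-point, triplicate dose-response data, highest compound concentration 50 uM. Rates are slopes of NADH fluorescence decline over 30 min, coupling ATP turnover of 20 nM rabbit skeletal myosin II with 10 μM actin and 1 mM ATP via PK/LDH, pH 7.0, 25 °C.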

Row | SMILES | Ki (Bovine cardiac myosin) [µM] | Ratio CMMII:NMII Ki/EC50 (Bovine cardiac myosin) | Photostability 4 hours [1] [%] | Photostability 24 hours [1] [%] | Photostability Dark (24 h) [1] [%] | Ki (Rabbit skeletal myosin) [µM]
1 | O=C1c2cc(C(F)(F)F)ccc2N=C2N(c3ccc(Cl)cc3)CC[C@@]12O [BPN-0026544] | – | NMII-sel | 51.1 | 10.8 | 93.7 | 4.8
2 | Cc1ccc2c(c1)C(=O)[C@]1(O)CCN(c3ccc4ncc(N)cc4c3)C1=N2 [BPN-0028652] | 80 | 9.6 | 86.2 | 22.8 | 98.5 | 1.3
3 | COc1ccc2cc(N3CC[C@@]4(O)C(=O)c5cc(C)ccc5N=C34)ccc2n1 [BPN-0027255] | – | NMII-sel | 82.4 | 42.2 | 98.3 | 0.8
4 | Cc1sc2c(c1C)C(=O)[C@]1(O)CCN(c3ccc4ncccc4c3)C1=N2 [BPN-0027376] | 46 | 7.8 | 90.4 | 2.8 | 97.0 | 6.7
5 | O=C1c2cc(Cl)c(Cl)cc2N=C2N(c3ccccc3)CC[C@@]12O [BPN-0026643] | 17 | 3.5 | 64.0 | <1 | 85.1 | 1.9
6 | Cc1ccc2c(c1)C(=O)[C@]1(O)CCN(c3ccc4nc(C)ccc4c3)C1=N2 [BPN-0027289] | 50 | 29.4 | 91.9 | 26.3 | 97.0 | 1
7 | Cc1ncc(N2CC[C@@]3(O)C(=O)c4cc(F)c(C(F)(F)F)cc4N=C23)s1 [BPN-0026667] | 6.2 | 5.2 | 85.7 | 2.9 | >99 | 0.33
8 | Cc1ccc2c(c1)C(=O)[C@]1(O)CCN(c3ccc4ncccc4c3)C1=N2 [BPN-0027040] | 37 | 30.8 | 94.8 | 21.4 | 95.7 | 2.6
9 | CCc1cc2c(s1)N=C1N(c3ccc(C#N)c(C)c3)CC[C@@]1(O)C2=O [BPN-0026848] | 320 | 12.3 | >99 | 98.7 | >99 | 61
10 | Cc1cc(N2CC[C@@]3(O)C(=O)c4cc(Cl)ccc4N=C23)ccc1C#N [BPN-0026457] | – | NMII-sel | 98.6 | 77.1 | >99 | 15
11 | CCc1cc2c(s1)N=C1N(c3ccc(C#N)cc3)CC[C@@]1(O)C2=O [BPN-0027038] | 17 | 6.3 | >99 | 98.7 | >99 | 0.61
12 | Cc1ccc2c(c1)C(=O)[C@]1(O)CCN(c3ccc4nc(N)ccc4c3)C1=N2 [BPN-0027494] | – | NMII-sel | 63.5 | <1.0 | 88.4 | 4.7
13 | O=C1c2cc(Cl)ccc2NC2N(c3ccc4ccoc4c3)CC[C@@]12O (some centres unmarked) [BPN-0026401] | 50 | 16.7 | 81.2 | 9.6 | 97.7 | 3.3
14 | Cc1ccc2c(c1)C(=O)[C@]1(O)CCN(c3ccn4ncnc4c3)C1=N2 [BPN-0027441] | 230 | 4.6 | 97.2 | 71.4 | 91.8 | 12
15 | Cc1ccc2c(c1)C(=O)[C@]1(O)CCN(c3ccn4nccc4c3)C1=N2 [BPN-0027396] | 9.5 | 5.3 | 85.5 | 23.5 | >99 | 1.1

Results, then the molecule that gave them:

Row | Ki (Bovine cardiac myosin) [µM] | Ratio CMMII:NMII Ki/EC50 (Bovine cardiac myosin) | Photostability 4 hours [1] [%] | Photostability 24 hours [1] [%] | Photostability Dark (24 h) [1] [%] | Ki (Rabbit skeletal myosin) [µM] | SMILES
16 | 83 | 31.9 | 41.7 | 3.5 | 97.9 | 15 | COc1cccc(N2CC[C@@]3(O)C(=O)c4cc(C)c(C)cc4N=C23)c1 [BPN-0026496]
17 | 17 | 3.8 | 58.8 | 10.6 | >99 | 3.6 | Cc1cc2c(cc1F)C(=O)[C@]1(O)CCN(c3cnn(C)c3)C1=N2 [BPN-0026746]
18 | 9 | 3.5 | 72.1 | 17.9 | 91.1 | 0.93 | Cc1cc2c(cc1Cl)C(=O)[C@]1(O)CCN(c3ccccc3)C1=N2 [BPN-0026659]
19 | – | NMII-sel | >99 | 36.4 | >99 | 2.4 | Cc1cc2c(cc1F)C(=O)[C@]1(O)CCN(c3ccc4ncccc4c3)C1=N2 [BPN-0027197]
20 | 300 | 33.3 | 82.8 | 5.4 | 98.4 | 110 | Cc1cc2c(cc1C)C(=O)[C@]1(O)CCN(c3ccc4nc(CN(C)C)ccc4c3)C1=N2 [BPN-0028897]
21 | 120 | 12.4 | 87.6 | 35.9 | 97.6 | 9 | Cc1ccc2c(c1)C(=O)[C@]1(O)CCN(c3ccc4nc(CO)ccc4c3)C1=N2 [BPN-0028554]
22 | 18 | 3.3 | 98.6 | >99 | >99 | 4.6 | Cc1cc2c(s1)N=C1N(c3ccc(C#N)c(C)c3)CC[C@@]1(O)C2=O [BPN-0026576]
23 | 5.5 | 4.6 | 68.6 | 9.2 | 94.4 | 0.68 | Cc1nc2cc(N3CC[C@@]4(O)C(=O)c5cc(C)c(C)cc5N=C34)ccc2o1 [BPN-0027118]
24 | 12 | 7.1 | 87.9 | 71.9 | 91.6 | 0.37 | Cc1cc2c(cc1F)C(=O)[C@]1(O)CCN(c3ccc(C#N)cc3)C1=N2 [BPN-0026638]
25 | – | NMII-sel | >99 | 97.1 | 98.2 | 1.3 | Cc1ccc2c(c1)C(=O)[C@]1(O)CCN(c3cnc(C#N)c(Cl)c3)C1=N2 [BPN-0028646]
26 | 30 | 10.3 | 95.5 | 73.0 | >99 | 0.2 | Cc1ccc2c(c1)C(=O)[C@]1(O)CCN(c3ccc4ncc(C)cc4c3)C1=N2 [BPN-0027160]
27 | – | NMII-sel | 49.4 | 20.0 | 96.4 | 0.9 | Cc1cc2c(cc1C)C(=O)[C@]1(O)CCN(c3ccn4nccc4c3)C1=N2 [BPN-0027488]
28 | – | NMII-sel | 48.4 | <1 | 98.5 | 1.4 | Cc1cc2c(cc1C)C(=O)[C@]1(O)CCN(c3ccc4sc(C(C)C)nc4c3)C1=N2 [BPN-0028919]
29 | 27 | 3.1 | 82.1 | 14.8 | 96.6 | 6.8 | Cc1cc2c(cc1C)C(=O)[C@]1(O)CCN(c3cnc(CO)c(C)c3)C1=N2 [BPN-0028733]
30 | – | NMII-sel | 89.0 | 14.0 | 97.8 | 13 | Cc1ccc2c(c1)C(=O)[C@]1(O)CCN(c3ccc(Cl)c(C)c3)C1=N2 [BPN-0026325]
31 | 20 | 11.8 | 44.7 | <1 | 97.7 | 2.6 | Cc1cc2c(cc1C)C(=O)[C@]1(O)CCN(c3ccc4c(c3)OCCC4)C1=N2 [BPN-0028924]
32 | – | NMII-sel | 73.2 | 9.2 | 97.3 | 1 | Cc1cc2c(cc1C)C(=O)[C@]1(O)CCN(c3ccc4ncccc4c3)C1=N2 [BPN-0027215]
